biological target: T1, fatty acyl CoA:cholesterol acyl transferase (ACAT) (Rattus norvegicus, UniProt O70536); experiment: Inhibition of enzymatic esterification of cholesterol (ACAT), rat adrenal microsomal supernatant; format: biochemical; settings: final concentration of the test compound 5.2 μg./ml., 14C-oleoyl CoA, 37° C., read-out: % INHIBITION (percent inhibition of the ACAT enzyme compared to control values)
T1 construct: The supernatant, containing the microsomal fraction, served as the source of the cholesterol-esterifying enzyme; from tissue; host or cells: rat adrenals (supernatant of homogenate, 1,000 x g, containing the microsomal fraction)
T1 sequence (O70536 1-545): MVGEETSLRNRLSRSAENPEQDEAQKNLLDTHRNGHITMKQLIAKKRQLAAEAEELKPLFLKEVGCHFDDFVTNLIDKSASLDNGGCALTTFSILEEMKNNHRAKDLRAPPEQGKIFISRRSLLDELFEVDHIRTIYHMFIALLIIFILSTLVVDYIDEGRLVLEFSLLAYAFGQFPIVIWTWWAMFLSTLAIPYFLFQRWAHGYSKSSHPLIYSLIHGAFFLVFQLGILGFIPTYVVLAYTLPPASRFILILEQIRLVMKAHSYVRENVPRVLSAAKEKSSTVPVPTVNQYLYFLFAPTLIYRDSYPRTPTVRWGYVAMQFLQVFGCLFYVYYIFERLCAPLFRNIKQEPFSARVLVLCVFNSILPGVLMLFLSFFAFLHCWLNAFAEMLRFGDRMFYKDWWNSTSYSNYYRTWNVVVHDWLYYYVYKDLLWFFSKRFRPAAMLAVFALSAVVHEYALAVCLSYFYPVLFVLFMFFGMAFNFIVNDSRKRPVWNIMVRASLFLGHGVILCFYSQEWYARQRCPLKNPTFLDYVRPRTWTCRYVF
Protocol: The compounds of the present invention were tested for their ability to inhibit the enzymatic esterification of cholesterol according to the following procedure:
Rat adrenals were homogenized in 0.2M monobasic potassium phosphate buffer, pH 7.4, and centrifuged at 1,000 times gravity for 15 minutes at 5° C. The supernatant, containing the microsomal fraction, served as the source of the cholesterol-esterifying enzyme, fatty acyl CoA:cholesterol acyl transferase (ACAT). A mixture comprising 50 parts of adrenal supernatant, 10 parts of albumin (BSA) (50 mg./ml.), 20 parts of oleoyl CoA (^14 C-0.4 μCi), 3 parts of test compound, and 500 parts of buffer was pre-incubated at 37° C. for 10 minutes. After treatment with 20 parts of oleoyl CoA (^14 C-0.4 μCi), the mixture was incubated at 37° C. for 10 minutes. A control mixture, omitting the test compound, was prepared and treated in the same manner. The lipids from the incubation mixture were extracted into an organic solvent and separated by thin-layer chromatography. The cholesterol ester fraction was counted in a scintillation counter. This procedure is a modification of that described by Hashimoto, et al., Life Scie., 12 (Part II), 1-12 (1973).
The results of this test on representative compounds of this invention appear in Table I. The final concentration of the test compound was 5.2 μg./ml., and effectiveness of the compound is expressed as percent inhibition of the ACAT enzyme compared to control values.

Structure (SMILES)	inhibition at 5.2 µg/mL [%]
NC(=O)CC(c1ccc(Cl)cc1)c1ccc(Cl)cc1 [3,3-Bis(p-chlorophenyl)propionamide]	31
CCOC(=O)CNC(=O)C=C(c1ccc(Cl)cc1)c1ccc(Cl)cc1 [Ethyl N-[3,3-bis(p-chlorophenyl)acryloyl]glycinate]	85
CCCCN(CCCC)C(=O)CC(c1ccc(Cl)cc1)c1ccc(Cl)cc1 [N,N--Di-(n-butyl)-3,3-bis(p-chlorophenyl)propionamide]	48
CCCCN(CCCC)C(=O)CC(c1ccc(OC)cc1)c1ccc(OC)cc1 [N,N--Di-(n-butyl)-3,3-bis(p-methoxyphenyl)propionamide]	95
CCCCN(CCCC)C(=O)CC(c1ccc(C)cc1)c1ccc(C)cc1 [N,N--Di-(n-butyl)-3,3-bis(p-tolyl)propionamide]	94
O=C(CC(c1ccc(Cl)cc1)c1ccc(Cl)cc1)N(Cc1ccccc1)Cc1ccccc1 [N,N--Dibenzyl-3,3-bis(p-chlorophenyl)propionamide]	93
COc1ccc(C(CC(=O)N(Cc2ccccc2)Cc2ccccc2)c2ccc(OC)cc2)cc1 [N,N--Dibenzyl-3,3-bis(p-methoxyphenyl)propionamide]	87
Cc1ccc(C(CC(=O)N(Cc2ccccc2)Cc2ccccc2)c2ccc(C)cc2)cc1 [N,N--Dibenzyl-3,3-bis(p-tolyl)propionamide]	68
CN(C)C(=O)CC(c1ccc(Cl)cc1)c1ccc(Cl)cc1 [N,N--Dimethyl-3,3-bis(p-chlorophenyl)propionamide]	68
O=C(CC(c1ccc(Cl)cc1)c1ccc(Cl)cc1)NC12CC3CC(CC(C3)C1)C2 [N--(1-Adamantyl)-3,3-bis(p-chlorophenyl)propionamide]	97
COc1ccc(C(CC(=O)NC23CC4CC(CC(C4)C2)C3)c2ccc(OC)cc2)cc1 [N--(1-Adamantyl)-3,3-bis(p-methoxyphenyl)propionamide]	89
Cc1ccc(C(CC(=O)NC23CC4CC(CC(C4)C2)C3)c2ccc(C)cc2)cc1 [N--(1-Adamantyl)-3,3-bis(p-tolyl)propionamide]	76
CCCCNC(=O)CC(c1ccc(Cl)cc1)c1ccc(Cl)cc1 [N--(n-Butyl)-3,3-bis(p-chlorophenyl)propionamide]	92
O=C(CC(c1ccc(Cl)cc1)c1ccc(Cl)cc1)NCc1ccccc1 [N--Benzyl-3,3-bis(p-chlorophenyl)propionamide]	35
CCCCN(Cc1ccccc1)C(=O)CC(c1ccc(Cl)cc1)c1ccc(Cl)cc1 [N--Benzyl-N--(n-butyl)-3,3-bis(p-chlorophenyl)propionamide]	45
COc1ccc(C(CC(=O)NCCc2ccc(OC)c(OC)c2)c2ccc(OC)cc2)cc1 [N--[2-(3,4-Dimethoxyphenyl)ethyl]-3,3-bis(p-methoxyphenyl)propionamide]	78
